The source of these data is patent US9591978B2, “Methods and compositions for pre-screening patients for treatment with noribogaine” (DemeRX, Inc., priority 2014, dated 2017).

Structures are written as SMILES.

The nature of this series: Pharmacokinetics of noribogaine in healthy volunteers (plasma, LCMSMS). As to conditions: for AUC0-216 / AUC0-∞ / Cmax / Tmax / t1/2: healthy male volunteers, fasted, n = 6, mean (SD).
[1] abbreviates: 30 mg and 60 mg noribogaine dose groups.

For `CC[C@H]1C[C@@H]2C[C@H]3c4[nH]c5ccc(OC6OC(C(=O)O)C(O)C(O)C6O)cc5c4CCN(C2)[C@@H]13` (some centres unmarked) [Noribogaine glucuronide, noribogaine glucuronide], under setting [1], the “mean half-life in plasma” value lay within 21 to 23 h, the “time by which detected in plasma of all subjects” value was ≤ 0.75 h and the “time of peak concentrations after noribogaine dosing” value lay within 3 to 4 h. Besides, for the setting “both dose groups (30 mg, 60 mg)”, the “proportion of Cmax and AUC relative to noribogaine” value is given as 3-4%. In addition, for the setting “single oral 30 mg noribogaine”, the AUC0-216 is reported as 25.7 (9.1) ng · hr/ml, the “AUC0-∞” value is 25.8 (9.3) ng · hr/ml, the Cmax is recorded as 1.8 (0.6) ng/ml and the Tmax is recorded as 3.0 (0.6) hr. For the same molecule, the t1/2 (single oral 30 mg noribogaine) is listed as 20.6 (4.9) hr. Further, under “single oral 60 mg noribogaine”, the AUC0-216 is listed as 65.0 (21.5) ng · hr/ml, the “AUC0-∞” value is recorded as 67.1 (21.9) ng · hr/ml, the Cmax is given as 4.1 (1.2) ng/ml and the Tmax is given as 3.8 (1.2) hr. The t1/2 (single oral 60 mg noribogaine) is given as 23.1 (3.0) hr.
